What was measured:
[1] = target: T1, carnitine acetyltransferase (Columba livia, UniProt P52826); experiment: carnitine acetyltransferase inhibition assay (coupled CS/MDH, NADH at 340 mμ); assay type: biochemical
T1 sequence (P52826 31-627): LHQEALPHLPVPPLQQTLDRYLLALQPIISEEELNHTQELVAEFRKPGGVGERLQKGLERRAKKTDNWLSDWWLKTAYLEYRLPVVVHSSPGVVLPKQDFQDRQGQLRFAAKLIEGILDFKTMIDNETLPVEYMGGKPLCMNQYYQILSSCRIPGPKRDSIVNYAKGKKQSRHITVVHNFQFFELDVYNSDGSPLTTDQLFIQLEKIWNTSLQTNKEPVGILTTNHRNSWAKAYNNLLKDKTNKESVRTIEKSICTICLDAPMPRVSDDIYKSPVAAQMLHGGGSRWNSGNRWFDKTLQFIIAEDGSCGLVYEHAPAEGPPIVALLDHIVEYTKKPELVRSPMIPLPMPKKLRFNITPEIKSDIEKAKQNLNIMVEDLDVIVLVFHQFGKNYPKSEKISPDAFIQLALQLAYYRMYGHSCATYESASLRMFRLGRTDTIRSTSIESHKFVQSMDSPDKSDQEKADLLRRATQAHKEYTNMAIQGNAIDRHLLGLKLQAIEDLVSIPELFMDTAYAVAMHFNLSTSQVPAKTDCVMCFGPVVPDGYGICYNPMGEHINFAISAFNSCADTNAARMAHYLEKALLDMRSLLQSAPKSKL
Procedure: D,L-3-acetamido-4-trimethylaminobutyric acid.H2 O, referred to hereinafter as AAC, was assayed for inhibition of carnitine acetyltransferase.
The procedure used is described in Fritz, I. B., Schultz, S. K., and Srere, P. A., "Properties of Partially Purified Carnitine Acetyltransferase", J. Biol. Chem., 238, 2509-2517 (1963).
The assay was based on the following reactions wherein CAT is used to denote carnitine acetyltransferase, CS is used to denote citrate synthase, MDH is used to denote malate dehydrogenase, NAD is used to denote β-nicotinamide adenine dinucleotide (unreduced form) and NADH is used to denote β-nicotinamide adenine dinucleotide (reduced form):
The assay is based on the fact that the velocity of reaction to produce acetyl-Coenzyme A is reduced to the extent that CAT is inhibited. Reactions (2) and (3) are a detection system for acetyl-Coenzyme A wherein acetyl-Coenzyme A, as it is produced, reacts with oxaloacetate thereby causing the MDH to catalyze production of oxaloacetate to replace that which is used and resulting in production of NADH which is detected using a spectrophotometer based on its property of absorbing light at 340 mμ. Thus, when CAT is bound and inhibited, the rate of NADH production is decreased and the rate of increase of absorbency at 340 mμ is decreased. The results are readily compiled in a Lineweaver-Burk plot of the reciprocal of reaction velocity versus the reciprocal of concentration of acetylcarnitine and the data can be analyzed to o provide Ki ' values as mentioned above.
Sixteen runs were carried out. They consisted of a set of 4 runs where 1 mM of D,L-acetylcarnitine (pH 8.0) was included, a set of 4 runs where 2 mM of D,L-acetylcarnitine was included, a set of 4 runs where 5 mM of D,L-acetylcarnitine was included and a set of 4 runs where 10 mM of D,L-acetylcarnitine was included. In each set of runs, one run was conducted without AAC, one run was conducted with 0.1 mM AAC, one run was conducted with 0.5 mM AAC, and one run was conducted with 1.0 mM AAC.
Each run was carried out utilizing a cuvette with 1 ml total being added to it. To each cuvette was added 0.7 ml of a premix of aqueous solutions of Tris-HCl buffer, NAD^+, dithiothreitol, and Tris D,L-malate, pH of 8.0 (concentrations in the premix were as follows: Tris-HCl, 143 mM; NAD^+, 0.71 mM; dithiothreitol, 4.3 mM; and Tris D,L-malate, 14.3 mM, the selected amount of D,L-acetylcarnitine as described above, 0.05 ml of a 4 mM aqueous solution of Coenzyme A, 0.025 ml of a 168 units/ml solution of CS, 0.025 ml of a 240 units/ml solution of MDH, the selected amount of AAC as described above, and water to 0.995 ml. The D,L-acetylcarnitine was added utilizing solution of concentration of 100 mM (in other words 0.010 ml for the first set of runs, 0.020 ml for the second set of runs, 0.050 ml for the third set of runs, 0.100 ml for the fourth set of runs). The AAC was added utilizing solution of concentration of 100 mM (in other words, additions for runs in each set were of 0 ml, 0.001 ml, 0.005 ml and 0.010 ml).
After the above described reactants were added, each cuvette and its contents were incubated for 15 minutes at 30° C.
Directly after the incubation period, 0.005 ml of CAT (concentration 5 units/ml) was added in each case.
The reaction rate in each case was measured as described above as a function of change in absorbance at 340 mμ (providing a time course of NADH formation) and was expressed as mole NADH/min. (1 mM NADH =6.2×ΔA340).
A Ki 'value for the D,L form of AAC was calculated to be 5×10^-5 M which is 10^-2 to 10^-3 times the Ki ' values found by Fritz and Schultz for the compounds they tested.

[2] = cited from earlier work
[3] = tested on: carnitine palmitoyltransferase; experiment: binding and inhibition of carnitine palmitoyltransferase; assay type: biochemical; conditions: no test described
[4] = toxicity of administered amount in mice; assay type: in vivo; conditions: 5 mmol/kg intraperitoneally
Procedure: (§1) Four mice were injected subcutaneously with 0.5 mmol/kg carbon 14 tagged acetylcarnitine. Two of them were injected intraperitoneally with 5 mmol/kg of AAC. The carbon 14 CO2 output of the mice was monitored every 15 minutes for 6 hours and for each mouse a graph was prepared with time on the X-axis and % of radiolabelled CO2 on the Y-axis. […] The amount of AAC administered was not toxic to the mice.

CAT = target: T2, CAT (Mus musculus, UniProt P47934); experiment: carbon 14 CO2 output of mice given carbon 14 tagged acetylcarnitine; assay type: in vivo; conditions: 5 mmol/kg intraperitoneally, 0.5 mmol/kg carbon 14 acetylcarnitine subcutaneously, monitored 6 hours
T2 construct: from tissue; host or cells: whole living mice (endogenous enzyme)
T2 sequence (P47934 1-626): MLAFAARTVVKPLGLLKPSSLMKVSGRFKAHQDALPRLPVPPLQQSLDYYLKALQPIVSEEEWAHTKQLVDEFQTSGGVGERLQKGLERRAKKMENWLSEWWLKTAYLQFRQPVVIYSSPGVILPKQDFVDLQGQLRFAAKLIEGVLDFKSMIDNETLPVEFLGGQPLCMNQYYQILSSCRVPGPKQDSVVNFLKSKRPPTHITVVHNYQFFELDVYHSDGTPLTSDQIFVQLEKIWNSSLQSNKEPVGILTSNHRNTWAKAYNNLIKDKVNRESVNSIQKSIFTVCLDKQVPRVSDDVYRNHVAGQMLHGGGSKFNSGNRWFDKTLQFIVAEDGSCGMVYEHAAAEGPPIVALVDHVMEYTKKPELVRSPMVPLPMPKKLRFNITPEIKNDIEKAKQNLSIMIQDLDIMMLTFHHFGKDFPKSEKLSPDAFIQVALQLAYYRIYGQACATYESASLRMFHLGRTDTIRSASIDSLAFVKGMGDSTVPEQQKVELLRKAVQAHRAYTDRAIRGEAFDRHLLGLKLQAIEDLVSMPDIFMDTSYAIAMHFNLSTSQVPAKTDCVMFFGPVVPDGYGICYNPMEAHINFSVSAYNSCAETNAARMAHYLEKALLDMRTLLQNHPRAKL
Procedure: as §1

For C[N+](C)(C)CC(CC(=O)[O-])NC(=O)CBr (racemic) [D,L-3-bromoacetamido-4-trimethylaminobutyricacid.H2 O], which “reversibility of binding action” value [1] is on record?
Its value is “irreversible”.

And the “inhibition of CAT” value ([1]; no test described)?
The value was “inhibits CAT similarly to AAC”.

With C[N+](C)(C)CC(CC(=O)[O-])OC(=O)CBr [Bromoacetyl-L-carnitine] as the molecule, how does the toxicity in vivo [2] read?
Its toxicity in vivo is “toxicity due to release of bromine and/or bromoacetate”.

With CCCCCCCCCCCCCCCC(=O)NC(CC(=O)[O-])C[N+](C)(C)C (racemic) [PAC, D,L-3-palmitoamido-4-trimethylaminobutyric acid.H2 O] as the molecule, how does the “binding and inhibition of carnitine palmitoyltransferase” value [3] read?
Its value is “readily binds to and inhibits carnitine palmitoyltransferase”.

For CC(=O)NC(CC(=O)[O-])C[N+](C)(C)C (racemic) [AAC, D,L-3-acetamido-4-trimethylaminobutyric acid.H2 O], which “toxicity of the amount administered” value [4] is on record?
The value was “not toxic”.

What about the “Ki' relative to the Ki' values found by Fritz and Schultz for the compounds they tested” value [1] of the same molecule?
Its value is 10^-2 to 10^-3 times.

What about the “reversibility of binding action” value [1] of the same molecule?
Its value is “reversible by dilution”.

What about the Ki ([1]; D,L form, Lineweaver-Burk plot, 1-10 mM D,L-acetylcarnitine, pH 8.0, 30° C) of the same molecule?
The Ki was 50 µM.

What about the “mode of inhibition of CAT” value ([1]; Lineweaver-Burk plot, same site as acetyl carnitine) of the same molecule?
Its value is “competitive inhibitor”.

What about the inhibition at 100 µM ([1]; at a concentration of 0.1 mM, read-out: inhibition of formation of acetyl-Coenzyme A) of the same molecule?
Its inhibition at 100 µM is 34%.

What about the inhibition at 500 µM ([1]; at a concentration of 0.5 mM, read-out: inhibition of formation of acetyl-Coenzyme A) of the same molecule?
The inhibition at 500 µM was 67%.

What about the inhibition at 1000 µM ([1]; at a concentration of 1 mM, read-out: inhibition of formation of acetyl-Coenzyme A) of the same molecule?
Its inhibition at 1000 µM is 81%.

And the “binding to CAT relative to acetylcarnitine (times more tightly)” value ([1]; from Lineweaver-Burk plot)?
The value was 18 times.

What about the “rate of radiolabelled CO2 output” value (CAT) of the same molecule?
Its value is “retarded rate of radiolabelled CO2 output”.

Reference: patent US4781863A, “Aminocarnitines” (Cornell Research Foundation, Inc., priority 1987, dated 1988)
